From ChEMBL document CHEMBL5465560, “Selectivity Literature for EUbOPEN Chemogenomic Library” (2024)

Legend:
[1] = target: Dual specificity mitogen-activated protein kinase kinase 2 (Homo sapiens) (UniProt P36507); conditions: at 10 µM
[2] = target: T1, Serine/threonine-protein kinase 36 (Homo sapiens) (UniProt Q9NRP7); conditions: at 10 µM
T1 sequence (whole entry): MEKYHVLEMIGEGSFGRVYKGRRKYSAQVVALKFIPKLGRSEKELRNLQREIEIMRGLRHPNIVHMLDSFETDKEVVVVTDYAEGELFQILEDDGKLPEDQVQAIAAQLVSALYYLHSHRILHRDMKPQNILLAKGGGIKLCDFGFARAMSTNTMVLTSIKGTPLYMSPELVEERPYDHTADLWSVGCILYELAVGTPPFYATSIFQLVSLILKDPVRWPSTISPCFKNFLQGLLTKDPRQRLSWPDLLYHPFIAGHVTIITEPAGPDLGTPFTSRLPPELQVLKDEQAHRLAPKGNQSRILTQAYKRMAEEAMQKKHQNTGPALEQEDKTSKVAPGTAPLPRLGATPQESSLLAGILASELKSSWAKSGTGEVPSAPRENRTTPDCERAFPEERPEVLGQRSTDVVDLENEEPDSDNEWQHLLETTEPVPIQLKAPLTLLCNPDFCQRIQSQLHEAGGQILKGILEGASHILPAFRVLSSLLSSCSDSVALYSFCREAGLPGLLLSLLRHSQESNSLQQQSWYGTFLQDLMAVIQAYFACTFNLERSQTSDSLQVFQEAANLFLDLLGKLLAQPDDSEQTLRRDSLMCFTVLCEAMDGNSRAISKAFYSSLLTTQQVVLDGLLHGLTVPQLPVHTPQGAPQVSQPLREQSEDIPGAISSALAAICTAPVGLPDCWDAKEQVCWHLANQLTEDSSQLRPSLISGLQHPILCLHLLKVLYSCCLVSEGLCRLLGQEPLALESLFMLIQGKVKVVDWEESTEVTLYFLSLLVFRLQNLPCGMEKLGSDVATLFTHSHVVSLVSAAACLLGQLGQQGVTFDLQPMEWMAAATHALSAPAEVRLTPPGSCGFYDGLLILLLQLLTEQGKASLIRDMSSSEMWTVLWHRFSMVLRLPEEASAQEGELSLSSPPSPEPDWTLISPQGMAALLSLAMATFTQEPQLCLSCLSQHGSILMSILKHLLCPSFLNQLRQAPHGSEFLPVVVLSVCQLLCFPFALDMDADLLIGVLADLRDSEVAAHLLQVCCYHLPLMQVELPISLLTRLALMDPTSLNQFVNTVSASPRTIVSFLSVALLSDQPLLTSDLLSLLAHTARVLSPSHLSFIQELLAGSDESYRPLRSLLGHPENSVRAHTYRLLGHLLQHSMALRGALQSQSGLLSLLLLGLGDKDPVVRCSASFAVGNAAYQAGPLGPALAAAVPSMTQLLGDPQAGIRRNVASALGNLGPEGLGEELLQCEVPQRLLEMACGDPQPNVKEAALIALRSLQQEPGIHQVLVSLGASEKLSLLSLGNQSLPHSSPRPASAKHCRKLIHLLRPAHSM

[3] = target: Insulin receptor (Homo sapiens, UniProt P06213); assay: Selectivity interaction (KinomeScan (DiscoverX)) EUB0001049a INSR; conditions: at 1 µM
Chain of Insulin receptor (P06213 28-758 limits assumed): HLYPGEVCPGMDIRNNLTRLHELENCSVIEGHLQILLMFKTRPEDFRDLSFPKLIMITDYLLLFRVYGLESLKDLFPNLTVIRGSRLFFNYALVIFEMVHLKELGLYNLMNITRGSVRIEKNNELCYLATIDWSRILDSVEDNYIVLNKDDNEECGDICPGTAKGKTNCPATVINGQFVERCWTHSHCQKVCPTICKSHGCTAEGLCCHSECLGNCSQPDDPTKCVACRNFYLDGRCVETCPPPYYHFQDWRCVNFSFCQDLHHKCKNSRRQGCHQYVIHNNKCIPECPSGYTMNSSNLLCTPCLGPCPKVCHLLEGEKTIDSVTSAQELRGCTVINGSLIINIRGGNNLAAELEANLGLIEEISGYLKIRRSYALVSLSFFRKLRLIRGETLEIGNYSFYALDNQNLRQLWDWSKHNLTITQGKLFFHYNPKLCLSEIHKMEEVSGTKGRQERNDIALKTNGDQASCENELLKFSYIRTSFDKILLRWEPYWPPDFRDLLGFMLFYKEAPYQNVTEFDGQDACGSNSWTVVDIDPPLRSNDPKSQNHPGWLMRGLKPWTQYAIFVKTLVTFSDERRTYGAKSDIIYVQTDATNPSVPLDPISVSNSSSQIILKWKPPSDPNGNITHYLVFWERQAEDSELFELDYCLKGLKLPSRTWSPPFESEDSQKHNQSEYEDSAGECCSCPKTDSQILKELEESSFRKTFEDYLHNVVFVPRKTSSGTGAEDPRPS
Chain of Insulin receptor (P06213 763-1382 limits assumed): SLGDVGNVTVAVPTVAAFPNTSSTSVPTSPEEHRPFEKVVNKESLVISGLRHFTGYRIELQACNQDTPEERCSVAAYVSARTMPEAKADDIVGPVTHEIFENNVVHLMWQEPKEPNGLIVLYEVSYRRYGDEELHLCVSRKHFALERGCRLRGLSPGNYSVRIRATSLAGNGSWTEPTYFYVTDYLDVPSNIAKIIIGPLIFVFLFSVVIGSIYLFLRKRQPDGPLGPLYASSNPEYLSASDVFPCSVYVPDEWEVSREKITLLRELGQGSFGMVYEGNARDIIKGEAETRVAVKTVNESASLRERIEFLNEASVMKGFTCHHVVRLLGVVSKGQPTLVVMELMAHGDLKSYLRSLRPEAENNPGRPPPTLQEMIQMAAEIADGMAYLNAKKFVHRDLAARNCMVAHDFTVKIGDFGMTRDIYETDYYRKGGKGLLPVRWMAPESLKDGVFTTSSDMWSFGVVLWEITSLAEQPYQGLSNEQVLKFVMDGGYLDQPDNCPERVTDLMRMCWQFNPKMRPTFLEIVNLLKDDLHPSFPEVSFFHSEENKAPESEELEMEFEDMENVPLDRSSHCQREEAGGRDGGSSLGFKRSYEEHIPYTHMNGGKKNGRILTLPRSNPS

[4] = target: Serine/threonine-protein kinase 33 (Homo sapiens) (UniProt Q9BYT3); assay: Selectivity interaction (Ambit KINOMEscan and KiNATiv profiling in Jurkat cells) EUB0000090b STK33; type: cell-based; conditions: at 1 µM
[5] = target: Putative phosphatidylinositol 4-kinase alpha-like protein P2 (Homo sapiens) (UniProt A4QPH2); assay: Selectivity interaction (ActivX KiNativ screen (kinase selectivity in THP-1 cell lysates)) EUB0000639a PI4KAP2; type: subcellular; conditions: lysate
Chain of Putative phosphatidylinositol 4-kinase alpha-like protein P2 (Homo sapiens) (A4QPH2 whole entry): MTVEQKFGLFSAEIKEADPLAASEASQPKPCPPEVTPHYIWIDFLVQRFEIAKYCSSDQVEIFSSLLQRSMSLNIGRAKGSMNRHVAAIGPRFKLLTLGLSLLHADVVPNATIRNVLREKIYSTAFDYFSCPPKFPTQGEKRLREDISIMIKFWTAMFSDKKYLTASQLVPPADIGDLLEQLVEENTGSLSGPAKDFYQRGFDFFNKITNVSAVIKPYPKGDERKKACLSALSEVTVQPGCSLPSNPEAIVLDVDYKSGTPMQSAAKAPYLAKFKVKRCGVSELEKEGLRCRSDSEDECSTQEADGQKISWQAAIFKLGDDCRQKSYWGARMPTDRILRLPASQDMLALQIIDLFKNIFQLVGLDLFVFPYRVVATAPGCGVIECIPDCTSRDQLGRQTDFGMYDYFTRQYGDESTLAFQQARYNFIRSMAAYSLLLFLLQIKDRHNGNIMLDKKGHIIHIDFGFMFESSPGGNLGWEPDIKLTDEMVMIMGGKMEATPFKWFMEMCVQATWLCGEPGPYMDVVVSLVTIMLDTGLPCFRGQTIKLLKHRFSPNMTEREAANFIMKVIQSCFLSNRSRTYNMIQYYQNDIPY

[6] = target: T2, Phosphatidylinositol 5-phosphate 4-kinase type-2 gamma (Homo sapiens) (UniProt Q8TBX8); assay: Selectivity interaction (KinomeScan (DiscoverX)) EUB0001550a PIP4K2C; conditions: at 1 µM
T2 sequence (whole entry): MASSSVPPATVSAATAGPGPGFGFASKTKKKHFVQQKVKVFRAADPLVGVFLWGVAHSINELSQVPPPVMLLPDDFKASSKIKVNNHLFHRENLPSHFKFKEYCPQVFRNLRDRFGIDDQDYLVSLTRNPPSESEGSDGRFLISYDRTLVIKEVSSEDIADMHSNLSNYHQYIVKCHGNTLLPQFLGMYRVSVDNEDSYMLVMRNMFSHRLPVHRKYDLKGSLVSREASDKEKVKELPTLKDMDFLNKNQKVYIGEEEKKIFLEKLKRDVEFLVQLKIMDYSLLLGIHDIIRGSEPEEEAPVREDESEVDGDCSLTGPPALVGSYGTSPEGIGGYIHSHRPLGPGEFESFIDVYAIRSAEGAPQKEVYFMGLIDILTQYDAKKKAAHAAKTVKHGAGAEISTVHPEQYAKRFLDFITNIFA

[7] = target: Mitogen-activated protein kinase kinase kinase kinase 1 (Homo sapiens) (UniProt Q92918); assay: Selectivity interaction (KinomeScan (DiscoverX)) EUB0000092b MAP4K1; conditions: at 10 µM
Chain of Mitogen-activated protein kinase kinase kinase kinase 1 (Homo sapiens) (Q92918 whole entry, looked up): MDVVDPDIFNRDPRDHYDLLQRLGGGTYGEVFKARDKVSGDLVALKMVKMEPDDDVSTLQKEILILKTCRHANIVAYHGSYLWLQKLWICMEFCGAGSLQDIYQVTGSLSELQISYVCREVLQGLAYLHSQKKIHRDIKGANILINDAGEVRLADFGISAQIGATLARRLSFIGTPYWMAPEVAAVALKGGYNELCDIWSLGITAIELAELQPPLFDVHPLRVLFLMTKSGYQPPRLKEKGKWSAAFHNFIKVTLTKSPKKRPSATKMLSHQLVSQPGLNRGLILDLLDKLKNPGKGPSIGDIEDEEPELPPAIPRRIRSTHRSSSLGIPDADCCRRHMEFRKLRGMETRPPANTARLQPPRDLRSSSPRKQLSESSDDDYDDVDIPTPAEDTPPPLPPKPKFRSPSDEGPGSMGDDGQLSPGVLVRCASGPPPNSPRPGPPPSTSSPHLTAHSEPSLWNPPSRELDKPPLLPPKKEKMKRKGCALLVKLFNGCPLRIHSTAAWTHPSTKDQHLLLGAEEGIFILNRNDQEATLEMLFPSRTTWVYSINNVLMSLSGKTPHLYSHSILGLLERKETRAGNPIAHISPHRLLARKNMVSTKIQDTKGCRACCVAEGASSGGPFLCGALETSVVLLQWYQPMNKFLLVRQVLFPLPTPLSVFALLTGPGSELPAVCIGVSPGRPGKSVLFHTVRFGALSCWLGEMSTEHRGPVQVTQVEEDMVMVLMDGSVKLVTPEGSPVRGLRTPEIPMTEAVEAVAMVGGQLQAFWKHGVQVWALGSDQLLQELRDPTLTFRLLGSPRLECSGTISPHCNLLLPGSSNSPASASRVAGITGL

[8] = target: Myosin light chain kinase, smooth muscle (Homo sapiens, UniProt Q15746); assay: Selectivity interaction (KinomeScan (DiscoverX)) EUB0000655a MYLK; conditions: at 10 µM
Chain of Myosin light chain kinase, smooth muscle (Q15746 whole entry): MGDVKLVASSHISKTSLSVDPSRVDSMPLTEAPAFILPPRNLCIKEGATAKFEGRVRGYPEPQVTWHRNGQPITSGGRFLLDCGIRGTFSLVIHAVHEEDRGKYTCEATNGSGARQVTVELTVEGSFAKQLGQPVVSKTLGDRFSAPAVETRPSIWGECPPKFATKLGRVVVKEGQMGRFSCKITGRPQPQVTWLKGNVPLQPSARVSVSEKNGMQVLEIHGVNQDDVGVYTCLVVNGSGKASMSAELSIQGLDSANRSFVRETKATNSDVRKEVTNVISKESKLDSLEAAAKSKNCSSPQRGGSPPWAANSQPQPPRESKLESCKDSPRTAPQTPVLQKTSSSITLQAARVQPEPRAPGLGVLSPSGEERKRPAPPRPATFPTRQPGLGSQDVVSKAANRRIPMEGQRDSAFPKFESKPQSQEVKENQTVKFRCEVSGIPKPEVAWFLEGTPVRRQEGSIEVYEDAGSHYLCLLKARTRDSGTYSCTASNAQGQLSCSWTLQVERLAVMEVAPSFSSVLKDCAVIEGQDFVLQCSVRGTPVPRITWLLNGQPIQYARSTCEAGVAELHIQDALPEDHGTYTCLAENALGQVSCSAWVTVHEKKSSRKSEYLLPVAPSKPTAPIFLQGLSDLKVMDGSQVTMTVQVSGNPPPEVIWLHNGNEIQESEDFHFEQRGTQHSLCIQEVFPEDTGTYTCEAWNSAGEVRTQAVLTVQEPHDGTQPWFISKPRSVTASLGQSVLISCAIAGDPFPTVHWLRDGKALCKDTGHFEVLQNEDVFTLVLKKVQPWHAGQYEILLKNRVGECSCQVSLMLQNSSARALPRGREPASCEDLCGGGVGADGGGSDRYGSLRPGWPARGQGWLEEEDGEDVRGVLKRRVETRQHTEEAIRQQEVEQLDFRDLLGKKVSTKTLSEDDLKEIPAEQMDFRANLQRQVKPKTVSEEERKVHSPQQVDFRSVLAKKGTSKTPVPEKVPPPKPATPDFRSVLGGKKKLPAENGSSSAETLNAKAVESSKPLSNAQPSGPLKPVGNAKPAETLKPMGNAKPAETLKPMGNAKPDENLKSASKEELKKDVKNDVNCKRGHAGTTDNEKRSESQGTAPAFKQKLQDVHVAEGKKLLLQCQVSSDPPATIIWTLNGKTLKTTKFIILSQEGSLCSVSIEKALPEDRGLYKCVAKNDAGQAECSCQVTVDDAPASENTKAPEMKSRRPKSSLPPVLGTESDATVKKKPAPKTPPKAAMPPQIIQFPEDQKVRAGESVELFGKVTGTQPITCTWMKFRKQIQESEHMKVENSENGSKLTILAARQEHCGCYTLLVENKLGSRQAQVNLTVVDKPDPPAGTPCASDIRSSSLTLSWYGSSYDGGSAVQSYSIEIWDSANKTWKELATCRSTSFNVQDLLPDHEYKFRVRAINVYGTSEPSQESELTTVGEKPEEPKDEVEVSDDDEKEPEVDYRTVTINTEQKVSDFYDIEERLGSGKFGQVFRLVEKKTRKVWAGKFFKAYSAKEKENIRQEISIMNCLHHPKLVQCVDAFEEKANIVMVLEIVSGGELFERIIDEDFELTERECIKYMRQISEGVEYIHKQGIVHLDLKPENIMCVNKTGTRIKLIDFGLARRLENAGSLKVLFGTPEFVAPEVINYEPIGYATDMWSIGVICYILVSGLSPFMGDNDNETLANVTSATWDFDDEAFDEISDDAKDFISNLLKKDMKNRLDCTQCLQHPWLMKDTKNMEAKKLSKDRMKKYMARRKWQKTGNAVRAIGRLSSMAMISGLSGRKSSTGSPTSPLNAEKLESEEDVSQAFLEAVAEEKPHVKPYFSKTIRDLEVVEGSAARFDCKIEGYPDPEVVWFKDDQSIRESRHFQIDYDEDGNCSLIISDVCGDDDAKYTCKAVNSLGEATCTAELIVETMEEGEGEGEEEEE

[9] = target: Serine/threonine-protein kinase 24 (Homo sapiens) (UniProt Q9Y6E0); assay: Selectivity interaction (Kinase panel (KiNativ target engagement assay in Jurkat cells)) EUB0001635a STK24; type: cell-based; conditions: Selectivity number of off-targets 0.0, Selectivity number of targets 233.0, Source Knowledge https://www.sciencedirect.com/science/article/pii/S2451945619300674?via%3Dihub, at 1 µM
[10] = target: Tyrosine-protein kinase Blk (Homo sapiens) (UniProt P51451); assay: Selectivity interaction (KinomeScan (DiscoverX)) EUB0000666a BLK; conditions: at 10 µM

Chain of Dual specificity mitogen-activated protein kinase kinase 2 (Homo sapiens) (P36507 whole entry): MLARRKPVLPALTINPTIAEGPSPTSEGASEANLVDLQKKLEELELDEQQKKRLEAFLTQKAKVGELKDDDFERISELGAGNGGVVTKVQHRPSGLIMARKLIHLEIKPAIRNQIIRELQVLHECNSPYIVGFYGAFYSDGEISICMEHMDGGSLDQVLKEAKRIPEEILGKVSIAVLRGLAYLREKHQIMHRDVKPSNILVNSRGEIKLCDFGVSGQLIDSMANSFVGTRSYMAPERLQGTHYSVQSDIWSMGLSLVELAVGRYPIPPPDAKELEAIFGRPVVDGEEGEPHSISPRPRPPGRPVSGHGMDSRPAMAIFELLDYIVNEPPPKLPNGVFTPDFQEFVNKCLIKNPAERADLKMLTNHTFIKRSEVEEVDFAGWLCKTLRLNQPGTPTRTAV

Structure (SMILES): Cc1cc([C@@H](C)Nc2ccccc2C(=O)O)c2nc(N3CCOCC3)cc(=O)n2c1 [AZD-6482]
- % of control [1]: 100%
- % of control [2]: 100%

Structure (SMILES): COc1cc(Nc2nc(C)cc(-c3cnn4nc(OC)ccc34)n2)cc(C(F)(F)F)c1
- % of control [3]: 71%

Structure (SMILES): CN(C)C/C=C/C(=O)Nc1ccc(C(=O)N2CCCC(Nc3ncc(Cl)c(-c4c[nH]c5ccccc45)n3)C2)cc1 (centres undefined)
- % of control [4]: 90%

Structure (SMILES): CC[C@@H]1[C@H](F)C(=O)N[C@@H]1COc1nccc2cc(C(N)=O)c(OC)cc12 [ZIMLOVISERTIB]
- % of inhibition ([5]; at 0.01 µM): 7.2%
- % of inhibition ([5]; at 0.04 µM): -7.1%
- % of inhibition ([5]; at 0.2 µM): -24.4%
- % of inhibition ([5]; at 1 µM): -6%
- % of inhibition ([5]; at 5 µM): 38.5%

Structure (SMILES): CN(C)CC#Cc1ccc2[nH]c3c(c2c1)-c1nc(N)ncc1CCC3
- % of control [6]: 53%

Structure (SMILES): CCC(=O)N1CCN(c2ccc(-n3c(=O)ccc4cnc5ccc(-c6cnc7ccccc7c6)cc5c43)cc2C(F)(F)F)CC1
- % of control [7]: 30%

Structure (SMILES): CN(C)CCOc1ccc(-c2nc(-c3ccncc3)c(-c3ccc4c(c3)CC/C4=N\O)[nH]2)cc1
- % of control [8]: 51%

Structure (SMILES): C=CC(=O)Nc1ccc(C(=O)Nc2[nH]nc3c2CN(C(=O)N[C@H](CN(C)C)c2ccccc2)C3(C)C)cc1
- % of engagement [9]: 41.8%

Structure (SMILES): O=C(NOC[C@H](O)CO)c1ccc(F)c(F)c1Nc1ccc(I)cc1F
- % of control [10]: 83%
